*1 amine or outer side, *2 acyl side, *3 side chain or, on linkers, in order; H or OH if unused. Where a SMILES comes first, the peptide text is derived from it. [ ]: non-standard residue; d: D form. The star is where a group is joined. Phe(2-Me) = Cc1ccccc1C[C@H](N)C(=O)O; NleCONH2 = CCCC[C@H](N*)C(=O)C(N)=O; Suc = O=C(CCC(=O)[*:2])[*:1]; Tle = CC(C)(C)[C@H](N)C(=O)O

A short description of the experiment: Compound was tested for inhibition of Serine protease chymotrypsin.

What is called IC50 is the point on the concentration scale where inhibition reaches its midpoint. Consider `CCCC[C@H](NC(=O)[C@H](CC(C)C)NC(=O)[C@@H](NC(=O)[C@H](Cc1ccccc1C)NC(=O)[C@H](CCC(=O)O)NC(=O)[C@H](CC(=O)O)NC(=O)CCC(=O)O)C(C)(C)C)C(=O)C(N)=O` [(S)-4-((S)-1-{(S)-1-[(S)-1-((R)-1-Aminooxalyl-pentylcarbamoyl)-3-methyl-butylcarbamoyl]-2,2-dimethyl-propylcarbamoyl}-2-o-tolyl-ethylcarbamoyl)-4-[(S)-3-carboxy-2-(3-carboxy-propionylamino)-propionylamino]-butyric acid] (Suc-DE[Phe(2-Me)][Tle]L-NleCONH2), for which the IC50 was determined as 300 nM.

The values are drawn from BindingDB's records for doi:10.1016/s0960-894x(00)00654-5 (Roche Discover Welwyn, 2001).
